The record followed here is patent EP4810489A1, “SUBSTITUTED 2-(PYRROLIDIN-3-YL)ACETIC ACID DERIVATIVE, PREPARATION METHOD THEREFOR AND USE THEREOF” (Innovstone Therapeutics Limited, priority 2023, dated 2025).

The target in data set [1] is T1, Lp(a) assembly (Homo sapiens, UniProt P08519).
T1 construct: expressed in transfected cells; host or cells: HepG2 cells overexpressing apo(a)
Description: ELISA assay on screening Lp(a) assembly inhibition. It is filed as cell-based. As to conditions: HepG2 cells overexpressing ApoA protein, 24h incubation, ELISA of culture supernatant. The protocol: Test Example 1 and Methods of ELISA Assay on Screening Lp(a) Assembly Inhibition
1. Reagents, Consumables, Instruments
2. Cell Culture Media Preparation 2.1. Complete Cell Culture Media
3. Test Procedure • 3.1 Cell Culture and Passage • 1) Preheated the culture media, DPBS, and pancreatin in a 37°C water bath in advance. • 2) Digested cells with pancreatin, transferred the cell suspension to a 15 mL centrifuge tube, and centrifuged at 1000 rpm for 5 min. • 3) Resuspended the cells with culture media and transferred the cell suspension to a new T75 cell culture flask. • 4) Cultured at 37°C in a 5% CO2 incubator. • 3.2. Cell Seeding and Drug Administration • 1) Seeded HepG2 cells overexpressing of ApoA protein into a 96-well plate at 100 µL per well and incubated overnight for attachment. • 2) Replaced with fresh culture media the next day, then added diluted compounds, and cultured the cell plate in a 5% CO2, 37°C incubator for 24h. • 3.3. Preparation of Cell Culture Supernatant • 1) Added 10 µL of 1.5 M EACA to each well. • 2) Centrifuged at 1000 rpm for 1 min, and transferred 100 µL of cell culture supernatant to a pre-coated ELISA plate. • 3.4. […]

A short description of data set [2]: Safety assessment test in rats. It counts as in vivo, SD rats. As to conditions: oral gavage, 300 mg/kg and 1000 mg/kg once daily for 14 consecutive days. As to the method: Test Example 5 and Safety Assessment Test in Rats
The safety of the compounds of the present invention was evaluated by oral gavage administration to SD rats as the test animals.
Test method: 50 SD rats (half males and half females) were randomly divided into vehicle control group and test article group according to their body weight. The vehicle saline or the compound of the present invention or LY3473329 (300 mg/kg, 1000 mg/kg) was administered orally once daily for 14 consecutive days.

Data set [3] relates to Lp(a). The data set is described as follows: Humanized mouse Lp(a) inhibition test. Conditions: oral, 5 mg/kg once daily for 3 consecutive days, blood 8 h after last dose. It counts as in vivo, humanized Lp(a) transgenic mouse. As to the method:
Test Example 3 and Humanized Mouse Lp(a) Inhibition Test
The in vivo pharmacodynamics of the compounds in reducing Lp(a) was evaluated in a humanized Lp(a) transgenic mouse model.Lp(a) mice were obtained by crossing mice expressing humanized apoB-100 with mice expressing humanized apo(a) containing 16 Kringle repeats.Female mice aged 8-9 weeks were selected for the test.Housing conditions: standard light cycle (12 h light/12 h dark), temperature 20-25°C, humidity 40-70%, free access to water and normal diet.
One day before the test, mice were divided into vehicle control group and test article group (n=5/group) according to body weight and baseline plasma Lp(a) concentration. […] Eight hours after the last dose, 10 µL of blood was collected from the tail vein and transferred to a 1.5 mL centrifuge tube containing 90 µL of normal saline, mixed well, and left to stand on ice for 30min.The above samples were centrifuged at 4°C, 3000 rpm for 10 min, and the supernatant was collected and placed on ice.The Lp(a) concentration in the supernatant was measured by double-antibody sandwich ELISA using an anti-apo(a) capture antibody and an HRP-conjugated anti-ApoB detection antibody, with TMB for color development. The reaction was stopped with 1 N sulfuric acid, and the OD value was read at 450 nm on a Tecan microplate reader.Inhibition rate was calculated for each dosing group. […]

T1 sequence (P08519 20-2040): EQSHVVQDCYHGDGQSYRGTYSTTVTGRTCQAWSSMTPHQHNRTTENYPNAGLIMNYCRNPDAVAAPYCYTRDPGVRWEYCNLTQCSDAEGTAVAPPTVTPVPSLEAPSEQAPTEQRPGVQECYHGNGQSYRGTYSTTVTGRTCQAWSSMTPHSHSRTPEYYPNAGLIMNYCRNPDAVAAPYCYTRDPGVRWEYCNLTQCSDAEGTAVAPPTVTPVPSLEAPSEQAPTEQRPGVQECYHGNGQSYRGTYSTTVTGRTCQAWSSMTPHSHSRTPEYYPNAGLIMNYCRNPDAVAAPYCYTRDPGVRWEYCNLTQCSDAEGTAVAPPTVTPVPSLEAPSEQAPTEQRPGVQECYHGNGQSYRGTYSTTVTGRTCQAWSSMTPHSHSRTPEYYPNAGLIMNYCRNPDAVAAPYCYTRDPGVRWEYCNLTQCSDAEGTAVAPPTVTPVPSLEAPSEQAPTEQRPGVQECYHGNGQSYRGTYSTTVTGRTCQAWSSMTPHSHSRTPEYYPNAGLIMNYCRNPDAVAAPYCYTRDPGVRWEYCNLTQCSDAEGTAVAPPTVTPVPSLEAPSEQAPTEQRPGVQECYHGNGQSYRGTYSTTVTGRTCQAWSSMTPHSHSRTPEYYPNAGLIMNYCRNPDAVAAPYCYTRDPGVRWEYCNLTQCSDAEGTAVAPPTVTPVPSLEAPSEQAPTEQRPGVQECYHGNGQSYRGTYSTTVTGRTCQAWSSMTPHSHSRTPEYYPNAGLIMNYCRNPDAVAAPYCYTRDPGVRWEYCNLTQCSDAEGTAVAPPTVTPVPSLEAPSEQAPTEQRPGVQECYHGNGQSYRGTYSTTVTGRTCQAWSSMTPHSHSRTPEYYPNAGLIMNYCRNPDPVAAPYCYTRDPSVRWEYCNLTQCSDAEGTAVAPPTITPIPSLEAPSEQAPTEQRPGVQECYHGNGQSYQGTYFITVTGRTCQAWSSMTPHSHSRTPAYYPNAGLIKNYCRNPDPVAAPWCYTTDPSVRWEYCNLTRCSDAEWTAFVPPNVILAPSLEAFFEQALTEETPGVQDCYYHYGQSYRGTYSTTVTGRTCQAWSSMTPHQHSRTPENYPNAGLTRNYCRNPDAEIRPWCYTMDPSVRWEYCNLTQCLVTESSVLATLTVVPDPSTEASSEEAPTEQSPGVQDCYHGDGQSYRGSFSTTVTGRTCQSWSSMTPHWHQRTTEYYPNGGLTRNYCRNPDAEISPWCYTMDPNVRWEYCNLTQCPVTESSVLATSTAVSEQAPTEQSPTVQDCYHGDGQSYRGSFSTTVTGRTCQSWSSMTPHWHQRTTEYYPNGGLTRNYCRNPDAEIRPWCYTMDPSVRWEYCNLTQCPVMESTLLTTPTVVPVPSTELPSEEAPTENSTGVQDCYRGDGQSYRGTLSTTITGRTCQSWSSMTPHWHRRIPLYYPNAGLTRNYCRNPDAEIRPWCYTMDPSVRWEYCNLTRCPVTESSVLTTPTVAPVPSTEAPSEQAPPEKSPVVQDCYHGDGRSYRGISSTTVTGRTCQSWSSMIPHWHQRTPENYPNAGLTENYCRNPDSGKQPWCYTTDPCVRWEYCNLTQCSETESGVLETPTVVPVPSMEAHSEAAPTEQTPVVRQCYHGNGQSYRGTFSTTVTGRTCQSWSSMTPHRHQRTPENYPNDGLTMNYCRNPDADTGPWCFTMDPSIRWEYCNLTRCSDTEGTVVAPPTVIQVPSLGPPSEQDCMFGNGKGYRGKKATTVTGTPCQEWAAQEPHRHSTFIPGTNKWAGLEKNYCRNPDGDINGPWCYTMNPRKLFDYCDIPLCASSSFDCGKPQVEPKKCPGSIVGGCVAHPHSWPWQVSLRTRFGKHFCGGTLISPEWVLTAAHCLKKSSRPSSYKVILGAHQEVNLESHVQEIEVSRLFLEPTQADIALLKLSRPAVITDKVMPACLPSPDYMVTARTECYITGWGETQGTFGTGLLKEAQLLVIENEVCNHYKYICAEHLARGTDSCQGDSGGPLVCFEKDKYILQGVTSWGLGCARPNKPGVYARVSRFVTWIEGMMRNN

`O=C(O)[C@@H](Cc1ccc2c(CN(Cc3n[nH]c4cc(C[C@H](C(=O)O)[C@H]5CCNC5)ccc34)Cc3n[nH]c4cc(C[C@H](C(=O)O)[C@H]5CCNC5)ccc34)n[nH]c2c1)[C@H]1CCNC1` [Compound 136] registered an IC50 in data set [1] of 2.16 nM.
In data set [1], `O=C(O)[C@@H](Cc1cccc(CN(Cc2cccc(C[C@H](C(=O)O)[C@H]3CCNC3)c2)Cc2cccc(C[C@H](C(=O)O)[C@H]3CCNC3)c2)c1)[C@H]1CCNC1` [LY3473329] gave an IC50 of 1.05 nM. Besides, the “changes in clinical observation, body weight and weight gain, food consumption, hematology, blood biochemistry, urine, organ weight and coefficients, and histopathology” value in data set [2] is “no changes”. Also, the “Lp(a) Inhibition Rate” value in data set [3] is reported as 56%.
